Experimental data published in PubChem BioAssay (NCI).
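Five compound concentrations were applied to cells in 96-well plates for 48 hours; endpoints were derived by simple linear interpolation of the resulting dose-response curve. GI50: concentration for 50% inhibition of growth. The concentration for full growth arrest is given as TGI.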 *1 amine or outer side, *2 acyl side, *3 side chain or, on linkers, in order; H or OH if unused. Where a SMILES comes first, the peptide text is derived from it. Bridges are numbered along the chain shown (N, C = ends). [ ]: non-standard residue; d: D form. ξ: configuration not given here. X35 = CC[C@H](C)[C@@H](N[*:1])[C@@H](O)CC(=O)O[C@H](C(=O)[C@H](C)C(=O)[*:2])C(C)C; NMeY = CN[C@@H](Cc1ccc(O)cc1)C(=O)O; dNMeL = CN[C@H](CC(C)C)C(=O)O; ξΔPro = O=C(O)C1C=CCN1

Experiments:
Test in all cases: NCI tumour cell line growth inhibition, 48 h
[1] = tested on: LOX IMVI melanoma
[2] = tested on: M14 melanoma
[3] = tested on: MALME-3M melanoma
[4] = tested on: HCT-116 colon
[5] = tested on: EKVX NSCLC
[6] = tested on: HS 578T breast
[7] = tested on: NCI/ADR-RES ovarian
[8] = tested on: SF-539 CNS
[9] = tested on: 786-0 renal
[10] = tested on: TK-10 renal

Compound: CC1(C)[C@@H](OC(N)=O)C=C[C@]2(CO)[C@H]3CC[C@]4(C)[C@@H](c5ccc(=O)oc5)[C@@H](Cl)C[C@]4(O)C3=CC[C@@H]12
- GI50 [1]: 0.00209 µM
- TGI [1]: 0.0106 µM
- GI50 [2]: 0.0131 µM
- TGI [2]: 0.0297 µM
- GI50 [3]: 0.00239 µM
- TGI [3]: 0.00524 µM
- GI50 [4]: < 0.0001 µM
- TGI [4]: 0.0104 µM
- GI50 [5]: < 0.0001 µM
- TGI [5]: 0.00806 µM
- GI50 [6]: < 0.0001 µM
- TGI [6]: 0.00837 µM
- GI50 [7]: < 0.0001 µM
- TGI [7]: 0.0127 µM

Compound: COc1cccc(C23CCCC(C2)N(C)CC3OC(=O)c2ccccc2)c1OC (stereo not given)
- TGI [1]: 45.2 µM
- TGI [2]: 29.6 µM
- TGI [8]: > 100 µM
- TGI [3]: 48.1 µM
- TGI [4]: > 100 µM
- TGI [9]: > 100 µM
- TGI [5]: 72.7 µM
- TGI [6]: 78.6 µM
- TGI [7]: 67.1 µM

Compound: C=C(CCOC)CCC1CCCCC(=C)[C@H]1O (stereo not given in full)
- TGI [2]: > 100 µM
- TGI [4]: > 100 µM
- TGI [9]: > 100 µM
- TGI [5]: > 100 µM
- TGI [6]: > 100 µM
- TGI [10]: > 100 µM
- TGI [7]: > 100 µM

Compound: Cc1cn(CCOCCOC(=O)NC(CCCNC(N)=O)C(=O)O)c(=O)[nH]c1=O (stereo not given)
- TGI [1]: > 100 µM
- TGI [2]: > 100 µM
- TGI [8]: > 100 µM
- TGI [4]: > 100 µM
- TGI [9]: > 100 µM
- TGI [5]: > 100 µM
- TGI [6]: > 100 µM
- TGI [10]: > 100 µM
- TGI [7]: > 100 µM

Compound: O=C(NCCCCCCO)c1cccc2cc3ccccc3nc12
- TGI [1]: 34.7 µM
- TGI [8]: 33.7 µM
- TGI [4]: 33.1 µM
- TGI [9]: 36.2 µM
- TGI [5]: 32.8 µM
- TGI [6]: 71.9 µM
- TGI [10]: 34.6 µM
- TGI [7]: > 100 µM

Compound: O=c1c(O)cccn1C1OC(CO)C(O)C1O (stereo not given)
- TGI [1]: > 100 µM
- TGI [2]: > 100 µM
- TGI [3]: > 100 µM
- TGI [4]: > 100 µM
- TGI [9]: > 100 µM
- TGI [5]: > 100 µM
- TGI [10]: > 100 µM

Compound: C[PH+](c1nc2ccccc2nc1[PH+](C)C(C)(C)C)C(C)(C)C.C[PH+](c1nc2ccccc2nc1[PH+](C)C(C)(C)C)C(C)(C)C.[Au+].[Cl-] (stereo not given)
- GI50 [1]: 0.0396 µM
- TGI [1]: 0.155 µM
- GI50 [2]: 0.0386 µM
- TGI [2]: 0.31 µM
- GI50 [8]: 0.053 µM
- TGI [8]: 1.14 µM
- GI50 [3]: 0.0263 µM
- TGI [3]: 0.0811 µM
- GI50 [4]: 0.0205 µM
- TGI [4]: 0.0613 µM
- GI50 [6]: 0.0447 µM
- TGI [6]: 1.75 µM
- GI50 [10]: 0.0431 µM
- TGI [10]: 1.13 µM

Compound: CCN(CCCl)c1cccc(NC(=O)c2ccc(C(=O)Nc3cccc(CN(C)C)c3)cc2)c1
- TGI [1]: 0.177 µM
- TGI [2]: 0.86 µM
- TGI [8]: 0.611 µM
- TGI [3]: 0.166 µM
- TGI [4]: 12.4 µM
- TGI [6]: 0.399 µM
- TGI [10]: 0.779 µM
- TGI [7]: > 100 µM

Compound: C=CCCCCn1c2ccccc2c2c(C)c3cnccc3c(C)c21
- TGI [1]: 82.5 µM
- TGI [8]: 33.5 µM
- TGI [3]: 36.8 µM
- TGI [4]: 20.9 µM
- TGI [5]: 34.4 µM
- TGI [7]: 33.7 µM

Compound: COc1cc(C)cc2c(-c3c(O)cc(O)c4c3C[C@H](C)N[C@H]4C)cc(-c3cc(-c4c(O)cc(O)c5c4C[C@H](C)N[C@H]5C)c4cc(C)cc(OC)c4c3O)c(O)c12
- TGI [2]: > 100 µM
- TGI [8]: > 100 µM
- TGI [3]: > 100 µM
- TGI [4]: > 100 µM
- TGI [9]: > 100 µM
- TGI [5]: > 100 µM
- TGI [6]: > 100 µM
- TGI [10]: > 100 µM
- TGI [7]: > 100 µM

Compound: O=C(O)CCSC1=NCCN1
- TGI [1]: > 100 µM
- TGI [2]: > 100 µM
- TGI [3]: > 100 µM
- TGI [4]: > 100 µM
- TGI [9]: > 100 µM
- TGI [5]: > 100 µM
- TGI [6]: > 100 µM
- TGI [10]: > 100 µM
- TGI [7]: > 100 µM

Compound: CC[C@H](C)[C@H]1NC(=O)[C@@H](NC(=O)[C@@H](CC(C)C)N(C)C(=O)C2C=CCN2)[C@@H](C)OC(=O)[C@H](Cc2ccc(OC)cc2)N(C)C(=O)[C@@H]2CCCN2C(=O)[C@H](CC(C)C)NC(=O)[C@@H](C)C(=O)[C@H](C(C)C)OC(=O)C[C@@H]1O (stereo not given in full) (H-[ξΔPro][dNMeL]T[X35]LP[NMeY](Me); ester 3-C)
- TGI [1]: 0.0161 µM
- TGI [2]: 0.111 µM
- TGI [3]: 0.0146 µM
- TGI [4]: 5.41 µM
- TGI [9]: 0.0597 µM
- TGI [5]: 0.168 µM
- TGI [6]: < 0.005 µM
- TGI [10]: 0.0516 µM
- TGI [7]: 0.52 µM

Compound: C[C@]12CCC(=O)C=C1CC[C@@H]1[C@@H]2[C@@H](O)C[C@@]2(C)[C@H]1CC[C@]2(O)C(=O)COC(=O)CCC1CCCC1
- TGI [1]: > 100 µM
- TGI [8]: > 100 µM
- TGI [3]: > 100 µM
- TGI [4]: > 100 µM
- TGI [9]: > 100 µM
- TGI [5]: > 100 µM
- TGI [10]: > 100 µM

Compound: COC(=O)[C@@H]1C=C[C@H](NC(C)=O)C1
- TGI [1]: > 100 µM
- TGI [2]: > 100 µM
- TGI [3]: > 100 µM
- TGI [4]: > 100 µM
- TGI [6]: > 100 µM
- TGI [10]: > 100 µM
- TGI [7]: > 100 µM

Compound: N#C/C(=C1/c2cc([N+](=O)[O-])ccc2-c2c1cc([N+](=O)[O-])cc2[N+](=O)[O-])N1CCCCC1
- TGI [2]: > 100 µM
- TGI [3]: > 100 µM
- TGI [4]: > 100 µM
- TGI [9]: > 100 µM
- TGI [5]: > 100 µM
- TGI [6]: > 100 µM
- TGI [10]: > 100 µM
- TGI [7]: > 100 µM

Compound: O=c1c2cc(Br)ccc2ncn1COCc1ccccc1
- TGI [1]: > 100 µM
- TGI [2]: > 100 µM
- TGI [8]: > 100 µM
- TGI [4]: > 100 µM
- TGI [9]: > 100 µM
- TGI [5]: > 100 µM
- TGI [10]: > 100 µM
- TGI [7]: > 1 µM

Compound: CC1=CC[C@](C)(O)[C@@]2(C)CC[C@H]3C(=C(C)C)C(=O)C[C@]3(C)C[C@H]12
- TGI [1]: 17 µM
- TGI [2]: > 50 µM
- TGI [8]: > 50 µM
- TGI [4]: > 50 µM
- TGI [9]: > 50 µM
- TGI [5]: > 50 µM
- TGI [6]: > 50 µM
- TGI [10]: > 50 µM
- TGI [7]: > 50 µM

Compound: Cc1nc2cccc(F)c2c(=O)n1-c1nnc(C(F)(F)F)s1
- TGI [1]: > 10 µM
- TGI [2]: > 10 µM
- TGI [8]: > 10 µM
- TGI [4]: > 10 µM
- TGI [9]: > 10 µM
- TGI [5]: > 10 µM
- TGI [6]: > 10 µM
- TGI [10]: > 10 µM
- TGI [7]: > 10 µM

Compound: O=c1nc2ccc3sc4ccccc4c(=O)c3n2c(=O)[nH]1
- TGI [1]: > 100 µM
- TGI [8]: > 100 µM
- TGI [3]: > 100 µM
- TGI [4]: > 100 µM
- TGI [9]: > 100 µM
- TGI [5]: > 100 µM
- TGI [6]: > 100 µM
- TGI [10]: > 100 µM
- TGI [7]: > 100 µM

Compound: NC(=S)NNC(=S)NC(=O)c1ccco1
- TGI [1]: > 10 µM
- TGI [2]: > 10 µM
- TGI [3]: > 10 µM
- TGI [4]: > 10 µM
- TGI [9]: > 10 µM
- TGI [5]: > 10 µM
- TGI [6]: > 10 µM
- TGI [7]: > 10 µM

Compound: CCOC(=O)CCC(NC(=O)OCc1ccccc1)C(=O)NC(CCC(=O)OCC)C(=O)NC(CCC(=O)OCC)C(=O)NNC(=O)OC(C)(C)C (stereo not given)
- TGI [2]: > 100 µM
- TGI [3]: > 100 µM
- TGI [4]: > 100 µM
- TGI [9]: > 100 µM
- TGI [5]: > 100 µM
- TGI [6]: > 100 µM
- TGI [10]: > 100 µM

Compound: CS(=O)(=O)[O-].CS(=O)(=O)[O-].NC1CCCCC1N.[Pt+4] (stereo not given)
- GI50 [1]: > 61 µM
- TGI [1]: > 100 µM
- GI50 [8]: > 100 µM
- TGI [8]: > 100 µM
- GI50 [3]: > 100 µM
- TGI [3]: > 100 µM
- GI50 [4]: 37.4 µM
- TGI [4]: > 100 µM
- GI50 [5]: > 100 µM
- TGI [5]: > 100 µM
- GI50 [7]: > 55.2 µM
- TGI [7]: > 100 µM

Compound: CC1(C)C=[N+]([O-])C(C)(C)N1O
- TGI [2]: > 10 µM
- TGI [3]: > 10 µM
- TGI [4]: > 10 µM
- TGI [9]: > 10 µM
- TGI [5]: > 10 µM
- TGI [10]: > 10 µM
- TGI [7]: > 10 µM
